Test results published in publication PMC8253220, “Molecular design, synthesis and in vitro biological evaluation of thienopyrimidine–hydroxamic acids as chimeric kinase HDAC inhibitors: a challenging approach to combat cancer” (Journal of Enzyme Inhibition and Medicinal Chemistry, 2021).

Legend:
Hela nuclear extracts = test: Hela nuclear extract HDAC inhibitor assay (BPS Bioscience); type: biochemical; conditions: 10 µM
Method: The purpose of the study is to determine the effects of twenty compounds from Misr International University on the enzymatic activities of hela nuclear extracts using an in vitro […]
7a Solution 10mM DMSO 10 10 % DMSO in
7b Solution 10mM DMSO 10 10 % DMSO in
7d Solution 10mM DMSO 10 10 % DMSO in
2.3 Experimental Conditions
2.3.1 Enzymes and Substrates
Assay Catalog # Substrate
Hela Nuclear Exctract 50053 10 µM HDAC Substrate 3
For the hela nuclear extracts, hela cells were grown to 90 % confluency. Hela nuclear extracts were prepared from the Nuclear Extraction Kit from abcam (Catalog # ab113474). The final total protein concentration was calculated to be 2.4 µg/µl. From this, the hela nuclear extracts was diluted 20-fold in HDAC assay buffer and 5 µl of the dilution was added to a 50 µl reaction.
The compounds are dissolved in DMSO. A series of dilutions of the compounds were prepared with 10% DMSO in HDAC assay buffer and 5 µl of the dilution was added to a 50 µl reaction so that the final concentration of DMSO is 1 % in all of […]
The enzymatic reactions for the hela nuclear extract were conducted in duplicate at 37 °C for 60 minutes in a 50 µl mixture containing HDAC assay buffer, 5 µg BSA, an HDAC substrate (see 2.3.1), hela nuclear extract, and a test compound (see 2.2).
After enzymatic reactions, 50μl of 2 x HDAC Developer was added to each well for the hela nuclear extract and the plate was incubated at room temperature for an additional 15 […]
Fluorescence intensity was measured at an excitation of 360 nm and an emission of 460 nm using a Tecan Infinite M1000 microplate reader.
Hela nuclear extract activity assays were performed in duplicates at each concentration.
The fluorescent intensity data were analyzed using the computer software, Graphpad Prism. In the absence of the compound, the fluorescent intensity (Ft) in each data set was defined as 100% activity. In the absence of hela nuclear extract, the fluorescent intensity (Fb) in each data set was defined as 0% activity. The percent activity in the presence of each compound was calculated according to the following equation: %activity = (F-Fb)/(Ft-Fb), where F= the fluorescent intensity in the presence of the compound.
The values of percentage activity were plotted on a bar graph.

HDAC6 = biological target: T1, HDAC6 (Homo sapiens, UniProt Q9UBN7); test: In vitro HDAC6 inhibitory assay (BPS Bioscience, fluorogenic); type: biochemical; conditions: 10 µM
T1 construct: purchased BPS Bioscience 50006
T1 sequence (Q9UBN7 1-1215): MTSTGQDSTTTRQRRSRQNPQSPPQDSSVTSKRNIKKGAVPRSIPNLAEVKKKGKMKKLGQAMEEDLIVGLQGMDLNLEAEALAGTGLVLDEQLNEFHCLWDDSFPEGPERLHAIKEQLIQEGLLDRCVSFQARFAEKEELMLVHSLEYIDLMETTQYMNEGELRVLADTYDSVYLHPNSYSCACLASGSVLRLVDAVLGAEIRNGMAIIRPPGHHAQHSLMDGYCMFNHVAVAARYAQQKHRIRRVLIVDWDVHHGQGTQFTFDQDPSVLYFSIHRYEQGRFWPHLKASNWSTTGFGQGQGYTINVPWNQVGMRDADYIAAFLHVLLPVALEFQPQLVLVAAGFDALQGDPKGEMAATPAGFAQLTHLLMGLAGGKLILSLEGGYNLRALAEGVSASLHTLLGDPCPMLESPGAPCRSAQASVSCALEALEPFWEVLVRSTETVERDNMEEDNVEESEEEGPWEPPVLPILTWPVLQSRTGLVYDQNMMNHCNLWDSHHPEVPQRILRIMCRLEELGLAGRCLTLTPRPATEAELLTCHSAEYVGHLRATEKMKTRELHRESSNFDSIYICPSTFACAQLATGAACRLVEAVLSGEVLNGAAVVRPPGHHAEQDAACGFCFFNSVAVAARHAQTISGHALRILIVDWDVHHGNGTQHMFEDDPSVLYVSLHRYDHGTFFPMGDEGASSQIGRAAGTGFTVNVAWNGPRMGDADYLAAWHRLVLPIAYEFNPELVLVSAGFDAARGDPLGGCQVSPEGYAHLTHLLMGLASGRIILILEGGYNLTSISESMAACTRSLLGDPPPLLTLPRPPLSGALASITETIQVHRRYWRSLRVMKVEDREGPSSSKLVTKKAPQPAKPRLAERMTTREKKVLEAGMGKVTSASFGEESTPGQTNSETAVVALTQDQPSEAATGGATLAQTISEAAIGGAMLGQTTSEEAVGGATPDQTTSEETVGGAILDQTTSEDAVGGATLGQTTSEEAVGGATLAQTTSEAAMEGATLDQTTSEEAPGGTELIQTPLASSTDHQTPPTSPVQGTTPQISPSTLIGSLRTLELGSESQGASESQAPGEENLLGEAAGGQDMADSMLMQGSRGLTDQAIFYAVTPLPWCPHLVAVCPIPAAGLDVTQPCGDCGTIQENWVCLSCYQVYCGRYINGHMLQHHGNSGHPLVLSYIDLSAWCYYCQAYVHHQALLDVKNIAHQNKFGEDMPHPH
Method: (1 picture or pasted object on this page, not shown here)
HDAC activity assays were performed in duplicates at each concentration. The

Structure (SMILES)	melting point [°C]	% Inhibition Hela Nuclear Extracts (Hela nuclear extracts) [%]	inhibition at 10 µM (HDAC6) [%]	Mean % inhibition HDAC6 (HDAC6) [%]
Cc1c(C(=O)NCCCC(=O)NO)sc2ncnc(Nc3ccccc3)c12 [Compound 20b, N-(4-(hydroxyamino)-4-oxobutyl)-5-methyl-4-(phenylamino)thieno[2,3-d]pyrimidine-6-carboxamide]	205	21	56	
Cc1c(C(=O)NCCCC(=O)NO)sc2ncnc(Nc3ccc(Cl)cc3)c12 [Compound 20c, 4–(4-chlorophenylamino)-N-(4-(hydroxyamino)-4-oxobutyl)-5-methylthieno[2,3-d]pyrimidine-6-carboxamide]	212	3	9	7
Cc1c(C(=O)NCCCC(=O)NO)sc2ncnc(Nc3ccc(F)c(Cl)c3)c12 [Compound 20d, 4–(3-chloro-4-fluorophenylamino)-N-(4-(hydroxyamino)-4-oxobutyl)-5-methylthieno[2,3-d]pyrimidine-6-carboxamide]	244 to 246	0		9
